Measurements as given in patent publication US11066414B2, “Cot modulators and methods of use thereof” (Gilead Sciences, Inc., priority 2015, dated 2021).
Where two headings read alike, the source gives them in different places.

Key:
[1] = system: TNFα; assay: Cot Monocyte TNFα Cell Based Assay
[2] = molecular target: Human Cot (Homo sapiens (Human), UniProt P41279); assay: High Throughput Cot Biochemical Assay
[3] = Homo sapiens, Monocyte, read-out: EC50 TNF, LPS-stimulated human monocytes, TNFα
[4] = IC50 HTRF, Cot HTRF (TR-FRET) biochemical assay
[5] = Homo sapiens, Monocyte, read-out: EC50 TNF, LPS-stimulated human monocytes, TNFα TR-FRET
[6] = IC50 HTRF, Cot HTRF (TR-FRET KinEASE) biochemical assay, 400 μM ATP

Human Cot, sequence (P41279 30-397): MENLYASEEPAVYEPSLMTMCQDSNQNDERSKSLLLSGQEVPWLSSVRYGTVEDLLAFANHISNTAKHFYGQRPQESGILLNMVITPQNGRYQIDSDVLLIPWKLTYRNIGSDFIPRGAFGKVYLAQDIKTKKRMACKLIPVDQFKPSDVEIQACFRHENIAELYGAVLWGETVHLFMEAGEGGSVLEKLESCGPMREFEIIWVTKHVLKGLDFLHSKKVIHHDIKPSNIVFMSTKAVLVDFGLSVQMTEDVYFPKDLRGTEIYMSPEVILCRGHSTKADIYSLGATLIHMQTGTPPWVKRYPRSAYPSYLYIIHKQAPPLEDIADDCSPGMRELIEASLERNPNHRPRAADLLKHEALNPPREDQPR

Row | SMILES | EC50 [1, 3] [nM] | IC50 [2, 4] [nM] | further results
1 | Cc1nc(F)ccc1[C@H](Nc1cc(C#N)c2ncc(C#N)c(NCC(C)(C)C)c2c1)c1cn(C(C)(C)C(F)F)nn1 [Example 590, (S)-6-(((1-(1,1-difluoro-2-methylpropan-2-yl)-1H-1,2,3-triazol-4-yl)(6-fluoro-2-methylpyridin-3-yl)methyl)amino)-4-(neopentylamino)-quinoline-3,8-dicarbonitrile] | 57 | 3 | 
2 | CC(C)(C)CNc1c(C#N)cnc2c(Cl)cc(N[C@H](c3cn(C4(C(F)(F)F)CC4)nn3)c3cccc4ncccc34)cc12 [Example 461, (S)-8-chloro-4-(neopentylamino)-6-((quinolin-5-yl(1-(1-(trifluoromethyl)-cyclopropyl)-1H-1,2,3-triazol-4-yl)methyl)amino)quinoline-3-carbonitrile] | 154 | 17 | 
3 | Cc1nc(F)ccc1[C@H](Nc1cc(C#N)c2ncc(C#N)c(NCC(C)(C)C(F)(F)F)c2c1)c1cn(C2(C(F)(F)F)CC2)nn1 [Example 843, (S)-6-(((6-fluoro-2-methylpyridin-3-yl)(1-(1-(trifluoromethyl)cyclopropyl)-1H-1,2,3-triazol-4-yl)methyl)amino)-4-((3,3,3-trifluoro-2,2-dimethylpropyl)amino)-quinoline-3,8-dicarbonitrile] |  |  | EC50 [1, 5]: 104 nM; IC50 [2, 6]: 4 nM
4 | Cn1ccc2c([C@H](Nc3cc(Cl)c4ncc(C#N)c(NCC(C)(C)C)c4c3)c3cn(C4(C(F)F)CC4)nn3)ccnc21 [Example 767, (S)-8-chloro-6-(((1-(1-(difluoromethyl)cyclopropyl)-1H-1,2,3-triazol-4-yl)(1-methyl-1H-pyrrolo[2,3-b]pyridin-4-yl)methyl)amino)-4-(neopentylamino)quinoline-3-carbonitrile] | 209 | 18 | 
5 | Cc1scnc1[C@H](Nc1cc(C#N)c2ncc(C#N)c(NCC(C)(C)C)c2c1)c1cn(C2(C(F)F)CC2)nn1 [Example 641] |  |  | EC50 ([1]; read-out: EC50 TNF, LPS-stimulated human monocytes, TNFα): 811 nM; IC50 ([2]; read-out: IC50 HTRF, Cot HTRF (TR-FRET) biochemical assay): 55 nM
6 | N#Cc1cnc2c(Cl)cc(N[C@@H](c3cccnc3)c3c[nH]nn3)cc2c1Nc1cnc(F)c(F)c1 [Example 207, (S)-8-chloro-4-((5,6-difluoropyridin-3-yl)amino)-6-((pyridin-3-yl(1H-1,2,3-triazol-4-yl)methyl)amino)quinoline-3-carbonitrile] | 931 | 5 | 
7 | COCCn1cc([C@@H](Nc2cc(Cl)c3ncc(C#N)c(Nc4ccc(F)c(Cl)c4)c3c2)c2cscn2)nn1 [Example 358, (S)-8-chloro-4-((3-chloro-4-fluorophenyl)amino)-6-(((1-(2-methoxyethyl)-1H-1,2,3-triazol-4-yl)(thiazol-4-yl)methyl)amino)-quinoline-3-carbonitrile] | 130 | 3 | 
8 | CC1(C)COCC[C@@H]1Nc1c(C#N)cnc2c(C#N)cc(N[C@H](c3cn(C4(C(F)(F)F)CC4)nn3)c3cccc4ncsc34)cc12 [Example 475, 6-(((S)-benzo[d]thiazol-7-yl(1-(1-(trifluoromethyl)cyclopropyl)-1H-1,2,3-triazol-4-yl)methyl)amino)-4-(((S)-3,3-dimethyltetrahydro-2H-pyran-4-yl)amino)quinoline-3,8-dicarbonitrile] | 258 | 20 | 
9 | [2H][C@](Nc1cc(Cl)c2ncc(C#N)c(Nc3cnc(F)c(F)c3)c2c1)(c1cccnc1)c1c[nH]nn1 [Example 164, (S)-8-chloro-4-((5,6-difluoropyridin-3-yl)amino)-6-((pyridin-3-yl(1H-1,2,3-triazol-4-yl)methyl-d)amino)quinoline-3-carbonitrile] | 1800 | 5 | 
10 | Cc1nc(F)ccc1[C@H](Nc1cc(Cl)c2ncc(C#N)c(NCC3(C(F)F)CC3)c2c1)c1cn(C2(C(F)(F)F)CC2)nn1 [Example 636, (S)-8-chloro-4-(((1-(difluoromethyl)cyclopropyl)-methyl)amino)-6-(((6-fluoro-2-methylpyridin-3-yl)(1-(1-(trifluoromethyl)cyclopropyl)-1H-1,2,3-triazol-4-yl)methyl)amino)quinoline-3-carbonitrile] | 720 | 69 | 
11 | Cc1nc(F)ccc1[C@H](Nc1cc(C#N)c2ncc(C#N)c(NCC(C)(C)C)c2c1)c1cn(C2CC2)nn1 [Example 454, (S)-6-(((1-cyclopropyl-1H-1,2,3-triazol-4-yl)(6-fluoro-2-methylpyridin-3-yl)methyl)amino)-4-(neopentylamino)-quinoline-3,8-dicarbonitrile] | 32 | 2 | 
12 | Cc1nc(F)ccc1[C@H](Nc1cc(Cl)c2ncc(C#N)c(NCC(C)(C)C)c2c1)c1cn(C2(C#N)CCC2)nn1 [Example 479, (S)-8-chloro-6-(((1-(1-cyanocyclobutyl)-1H-1,2,3-triazol-4-yl)(6-fluoro-2-methylpyridin-3-yl)methyl)amino)-4-(neopentylamino)quinoline-3-carbonitrile] | 78 | 5 | 
13 | Cc1ncccc1[C@H](Nc1cc(Cl)c2ncc(C#N)c(Nc3cnc(F)c(F)c3)c2c1)c1cn(C2COC2)nn1 [Example 172, (S)-8-chloro-4-((5,6-difluoropyridin-3-yl)amino)-6-(((2-methylpyridin-3-yl)(1-(oxetan-3-yl)-1H-1,2,3-triazol-4-yl)methyl)amino)quinoline-3-carbonitrile] | 832 | 10 | 
14 | CN(C)CCn1cc([C@@H](Nc2cc(Cl)c3ncc(C#N)c(Nc4ccc(F)c(Cl)c4)c3c2)c2cscn2)nn1 [Example 355, (S)-8-chloro-4-((3-chloro-4-fluorophenyl)amino)-6-(((1-(2-(dimethylamino)ethyl)-1H-1,2,3-triazol-4-yl)(thiazol-4-yl)methyl)-amino)quinoline-3-carbonitrile] | 194 | 5 | 
15 | Cc1nc(F)ccc1[C@H](Nc1cc(Cl)c2ncc(C#N)c(NCC34CC(C3)C4)c2c1)c1cn(C2(C(F)(F)F)CC2)nn1 [Example 740, (S)-4-((bicyclo[1.1.1]pentan-1-ylmethyl)amino)-8-chloro-6-(((6-fluoro-2-methylpyridin-3-yl)(1-(1-(trifluoromethyl)cyclopropyl)-1H-1,2,3-triazol-4-yl)methyl)amino)quinoline-3-carbonitrile] | 311 | 45 | 
16 | CCN1CCC(n2cc([C@@H](Nc3cc(Cl)c4ncc(C#N)c(Nc5ccc(F)c(Cl)c5)c4c3)c3cncs3)nn2)CC1 [Example 378, (R)-8-chloro-4-((3-chloro-4-fluoro-phenyl)amino)-6-(((1-(1-ethylpiperidin-4-yl)-1H-1,2,3-triazol-4-yl)(thiazol-5-yl)methyl)amino)quinoline-3-carbonitrile] | 168 | 2 | 
17 | Cc1nc(F)ccc1[C@H](Nc1cc(Cl)c2ncc(C#N)c(NCC(C)(C)C)c2c1)c1cn(C2CC23CC3)nn1 (stereo partly drawn) [Example 766, 8-chloro-6-(((1S)-(6-fluoro-2-methylpyridin-3-yl)(1-(spiro[2.2]pentan-1-yl)-1H-1,2,3-triazol-4-yl)methyl)amino)-4-(neopentylamino)quinoline-3-carbonitrile] | 30 | 2 | 
18 | CC(C)(C)CNc1c(C#N)cnc2c(C#N)cc(N[C@H](c3cn(C4(C(F)F)CC4)nn3)c3cccc4c(=O)n(CC(F)F)ccc34)cc12 [Example 870, (S)-6-(((2-(2,2-difluoroethyl)-1-oxo-1,2-dihydroisoquinolin-5-yl)(1-(1-(difluoromethyl)cyclopropyl)-1H-1,2,3-triazol-4-yl)methyl)amino)-4-(neopentylamino)quinoline-3,8-dicarbonitrile] |  |  | EC50 [1, 5]: 169 nM; IC50 [2, 6]: 2 nM
19 | CC[C@@H](Nc1c(C#N)cnc2c(Cl)cc(N[C@H](c3cn(C4CCN(C(C)(C)C)CC4)nn3)c3cccnc3C)cc12)c1ccccc1 [Example 221, 6-(((S)-(1-(1-(tert-butyl)piperidin-4-yl)-1H-1,2,3-triazol-4-yl)(2-methylpyridin-3-yl)methyl)amino)-8-chloro-4-(((R)-1-phenylpropyl)amino)quinoline-3-carbonitrile] | 28 | 2 | 
20 | Cc1ccc([C@H](Nc2cc(Cl)c3ncc(C#N)c(NCC(C)(C)C)c3c2)c2cn(C3(C(F)F)CC3)nn2)c(C)n1 [Example 717, (S)-8-chloro-6-(((1-(1-(difluoromethyl)cyclopropyl)-1H-1,2,3-triazol-4-yl)(2,6-dimethylpyridin-3-yl)methyl)amino)-4-(neopentylamino)quinoline-3-carbonitrile] | 100 | 8 | 
21 | COc1nccc2c([C@H](Nc3cc(C#N)c4ncc(C#N)c(NCC(C)(C)C(F)(F)F)c4c3)c3cn(C4(C(F)F)CC4)nn3)cccc12 [Example 821] |  |  | EC50 ([1]; read-out: EC50 TNF, LPS-stimulated human monocytes, TNFα TR-FRET): 60 nM; IC50 ([2]; read-out: IC50 HTRF, Cot HTRF (TR-FRET KinEASE) biochemical assay, 400 μM ATP): 3 nM
22 | Cc1nc(F)ccc1[C@H](Nc1cc(Cl)c2ncc(C#N)c(NCC(C)(C)C)c2c1)c1nnn(C2CC2)c1C1CC1 [Example 946, (S)-8-chloro-6-(((1,5-dicyclopropyl-1H-1,2,3-triazol-4-yl)(6-fluoro-2-methylpyridin-3-yl)methyl)amino)-4-(neopentylamino)quinoline-3-carbonitrile] |  |  | EC50 [1, 5]: 153 nM; IC50 [2, 6]: 5 nM
23 | COc1c([C@@H](Nc2cc(Cl)c3ncc(C#N)c(NCC(C)(C)C)c3c2)c2ccc(F)nc2C)nnn1C12CC(C1)C2 [Example 968, (S)-6-(((1-(bicyclo[1.1.1]pentan-1-yl)-5-methoxy-1H-1,2,3-triazol-4-yl)(6-fluoro-2-methylpyridin-3-yl)methyl)amino)-8-chloro-4-(neopentylamino)quinoline-3-carbonitrile] |  |  | EC50 [1, 5]: 94 nM; IC50 [2, 6]: 2 nM
